Conditions: Liquid; for thermal conductivity: Coaxial cylinder method; for viscosity: Capillary tube (Ostwald / Ubbelohde) method

O [water]
Conditions | thermal conductivity [W/m/K] | viscosity [mPa·s]
298.3 K, 100 kPa | 0.607 | –
298.3 K, 10000 kPa | 0.613 | –
298.3 K, 30000 kPa | 0.623 | –
299.76 K, 100 kPa | – | 0.8591
299.76 K, 10000 kPa | – | 0.8561
299.76 K, 30000 kPa | – | 0.8551
313.1 K, 100 kPa | 0.629 | –
313.1 K, 10000 kPa | 0.634 | –
313.1 K, 30000 kPa | 0.644 | –
315.62 K, 100 kPa | – | 0.6245
315.62 K, 10000 kPa | – | 0.6234
315.62 K, 30000 kPa | – | 0.6292
328.37 K, 100 kPa | – | 0.5
328.37 K, 10000 kPa | – | 0.503
328.37 K, 30000 kPa | – | 0.5071
333.3 K, 100 kPa | 0.651 | –
333.3 K, 10000 kPa | 0.656 | –
333.3 K, 30000 kPa | 0.666 | –
347.95 K, 100 kPa | – | 0.3761
347.95 K, 10000 kPa | – | 0.3803
347.95 K, 30000 kPa | – | 0.3872
352.9 K, 100 kPa | 0.667 | –
352.9 K, 10000 kPa | 0.672 | –
352.9 K, 30000 kPa | 0.682 | –
363.4 K, 100 kPa | 0.673 | –
363.4 K, 10000 kPa | 0.678 | –
363.4 K, 30000 kPa | 0.689 | –
375.85 K, 10000 kPa | – | 0.2772
375.85 K, 30000 kPa | – | 0.2833
393.1 K, 10000 kPa | 0.689 | –
393.1 K, 30000 kPa | 0.702 | –
403.95 K, 10000 kPa | – | 0.2131
403.95 K, 30000 kPa | – | 0.2181
423.3 K, 10000 kPa | 0.691 | –
423.3 K, 30000 kPa | 0.704 | –
431.43 K, 10000 kPa | – | 0.1738
431.43 K, 30000 kPa | – | 0.1786
448.7 K, 10000 kPa | 0.685 | –
448.7 K, 30000 kPa | 0.699 | –
474.3 K, 10000 kPa | 0.672 | –
474.3 K, 30000 kPa | 0.689 | –
476.4 K, 10000 kPa | – | 0.1326
476.4 K, 30000 kPa | – | 0.1375
499.3 K, 10000 kPa | 0.652 | –
499.3 K, 30000 kPa | 0.672 | –
502.75 K, 10000 kPa | – | 0.1189
502.75 K, 30000 kPa | – | 0.1239
523.4 K, 10000 kPa | 0.624 | –
523.4 K, 30000 kPa | 0.649 | –
524.75 K, 10000 kPa | – | 0.1081
524.75 K, 30000 kPa | – | 0.1132
548.4 K, 10000 kPa | 0.591 | –
548.4 K, 30000 kPa | 0.622 | –
549.5 K, 10000 kPa | – | 0.0961
549.5 K, 30000 kPa | – | 0.1011
573.5 K, 10000 kPa | 0.547 | –
573.5 K, 30000 kPa | 0.588 | –
574.54 K, 10000 kPa | – | 0.0851
574.54 K, 30000 kPa | – | 0.0918
